Data reported in PubChem BioAssay (NCI).
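48-hour exposure; five concentrations; linearly interpolated endpoints. Abbreviation: GI50, concentration required for 50% inhibition of growth. The concentration for full growth arrest is given as TGI.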

Key:
Test in all cases: NCI tumour cell line growth inhibition, 48 h
786-0 renal = test system: 786-0 renal
A549 NSCLC = test system: A549 NSCLC
ACHN renal = test system: ACHN renal
BT-549 breast = test system: BT-549 breast
CAKI-1 renal = test system: CAKI-1 renal
CCRF-CEM leukemia = test system: CCRF-CEM leukemia
COLO 205 colon = test system: COLO 205 colon
EKVX NSCLC = test system: EKVX NSCLC
HCC-2998 colon = test system: HCC-2998 colon
HCT-116 colon = test system: HCT-116 colon
HCT-15 colon = test system: HCT-15 colon
HL-60(TB) leukemia = test system: HL-60(TB) leukemia
HOP-62 NSCLC = test system: HOP-62 NSCLC
HOP-92 NSCLC = test system: HOP-92 NSCLC
HS 578T breast = test system: HS 578T breast
HT29 colon = test system: HT29 colon
IGROV1 ovarian = test system: IGROV1 ovarian
K-562 leukemia = test system: K-562 leukemia
LOX IMVI melanoma = test system: LOX IMVI melanoma
M14 melanoma = test system: M14 melanoma
MCF7 breast = test system: MCF7 breast
MDA-MB-435 = test system: MDA-MB-435
MOLT-4 leukemia = test system: MOLT-4 leukemia
NCI-H226 lung = test system: NCI-H226 lung
NCI-H23 lung = test system: NCI-H23 lung
NCI-H460 lung = test system: NCI-H460 lung

For `c1c2c(cc3c1OCO3)-c1ncc3cc4c(cc3c1C2)OCO4`, which TGI (786-0 renal) is on record?
Its TGI is 44.2 µM.

And the GI50 (A549 NSCLC)?
The GI50 was 702 nM.

And the TGI (A549 NSCLC)?
The TGI was > 77 µM.

What about the GI50 (ACHN renal) of the same molecule?
The GI50 was 33.7 nM.

What about the TGI (ACHN renal) of the same molecule?
Its TGI is 6.33 µM.

What about the GI50 (BT-549 breast) of the same molecule?
Its GI50 is 211 nM.

And the TGI (BT-549 breast)?
The TGI was > 100 µM.

And the GI50 (CAKI-1 renal)?
The GI50 was < 15.4 nM.

And the TGI (CAKI-1 renal)?
The TGI was 2140 nM.

What about the GI50 (CCRF-CEM leukemia) of the same molecule?
Its GI50 is 17.6 µM.

What about the TGI (CCRF-CEM leukemia) of the same molecule?
Its TGI is > 100 µM.

And the GI50 (COLO 205 colon)?
The GI50 was < 35.4 nM.

What about the GI50 (EKVX NSCLC) of the same molecule?
The GI50 was 19 µM.

What about the TGI (EKVX NSCLC) of the same molecule?
The TGI was > 100 µM.

What about the TGI (HCC-2998 colon) of the same molecule?
Its TGI is > 32.4 µM.

And the GI50 (HCT-116 colon)?
Its GI50 is < 30.5 nM.

What about the TGI (HCT-116 colon) of the same molecule?
Its TGI is > 61.2 µM.

What about the GI50 (HCT-15 colon) of the same molecule?
Its GI50 is < 10 nM.

What about the TGI (HCT-15 colon) of the same molecule?
The TGI was 24.8 µM.

And the GI50 (HL-60(TB) leukemia)?
The GI50 was 71.3 nM.

What about the TGI (HL-60(TB) leukemia) of the same molecule?
The TGI was > 100 µM.

What about the GI50 (HOP-62 NSCLC) of the same molecule?
Its GI50 is 112 nM.

And the TGI (HOP-62 NSCLC)?
The TGI was 27.5 µM.

What about the GI50 (HOP-92 NSCLC) of the same molecule?
The GI50 was 33.4 µM.

What about the TGI (HOP-92 NSCLC) of the same molecule?
The TGI was > 80.5 µM.

And the TGI (HS 578T breast)?
The TGI was > 94.8 µM.

What about the GI50 (HT29 colon) of the same molecule?
The GI50 was < 10 nM.

What about the TGI (HT29 colon) of the same molecule?
The TGI was > 100 µM.

What about the TGI (IGROV1 ovarian) of the same molecule?
Its TGI is > 100 µM.

And the GI50 (K-562 leukemia)?
Its GI50 is 10.1 nM.

And the TGI (K-562 leukemia)?
Its TGI is > 64.9 µM.

What about the GI50 (LOX IMVI melanoma) of the same molecule?
Its GI50 is < 10 nM.

What about the TGI (LOX IMVI melanoma) of the same molecule?
The TGI was 94.1 µM.

What about the GI50 (M14 melanoma) of the same molecule?
The GI50 was < 10 nM.

What about the TGI (M14 melanoma) of the same molecule?
Its TGI is > 100 µM.

What about the GI50 (MCF7 breast) of the same molecule?
The GI50 was < 37.7 nM.

And the TGI (MCF7 breast)?
Its TGI is 7.44 µM.

What about the GI50 (MDA-MB-435) of the same molecule?
Its GI50 is 54 µM.

What about the TGI (MDA-MB-435) of the same molecule?
The TGI was > 100 µM.

And the GI50 (MOLT-4 leukemia)?
Its GI50 is 14.7 nM.

What about the TGI (MOLT-4 leukemia) of the same molecule?
The TGI was 152 nM.

And the GI50 (NCI-H226 lung)?
The GI50 was 8.8 µM.

What about the TGI (NCI-H226 lung) of the same molecule?
The TGI was > 100 µM.

And the GI50 (NCI-H23 lung)?
Its GI50 is < 22.9 nM.

And the TGI (NCI-H23 lung)?
The TGI was > 24.7 µM.

And the GI50 (NCI-H460 lung)?
Its GI50 is 108 nM.
